Laboratory results taken from paper PMC9304322, “Targeting retinoic acid receptor alpha-corepressor interaction activates chaperone-mediated autophagy and protects against retinal degeneration” (Nature Communications, 2022).
Where “and” joins values, the source holds several entries; their conditions need not be identical. Identical values can stand only once.

What was measured:
[1] = Pharmacokinetic analysis, plasma and brain;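 for Fig. 3a level, single animals 1-3: plasma concentration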;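 for Fig. 3b level, single animals 1-3: brain concentration in ng/g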; format: in vivo, ICR (CD-1) male mice; set-up: Fig. 3a level, single animals 1-3 / Fig. 3b level, single animals 1-3: unit not given here
[2] = system: CMA network components in NIH3T3 cells; assay: qPCR of CMA network components and CMA activation score; format: cell-based, mouse; set-up: LAMP2A mRNA level / HSP90AB1 mRNA level / HSP40 mRNA level / RAC1 mRNA level / AKT1 mRNA level / AKT2 mRNA level / CTSA mRNA level / NFATC1 mRNA level / HSC70 mRNA level / NCOR1 mRNA level / NFE2L2 mRNA level / RAB11A mRNA level / RARa mRNA level / HSP90AA1 mRNA level / EEF1A1 mRNA level / RICTOR mRNA level: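 fold of untreated cells after 20 µM for 24 h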; key to CMA activation score: weighted (LAMP-2A ×2), directed (±1) average of CMA network expression;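 for AKT1 mRNA level: fold of untreated cells after 20 µM for 24 h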;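 for AKT2 mRNA level: fold of untreated cells after 20 µM for 24 h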;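 for CTSA mRNA level: fold of untreated cells after 20 µM for 24 h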;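 for HSC70 mRNA level: fold of untreated cells after 20 µM for 24 h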;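 for HSP40 mRNA level: fold of untreated cells after 20 µM for 24 h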;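 for HSP90AA1 mRNA level: fold of untreated cells after 20 µM for 24 h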;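 for HSP90AB1 mRNA level: fold of untreated cells after 20 µM for 24 h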;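 for LAMP2A mRNA level: fold of untreated cells after 20 µM for 24 h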;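 for NCOR1 mRNA level: fold of untreated cells after 20 µM for 24 h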;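 for NFATC1 mRNA level: fold of untreated cells after 20 µM for 24 h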;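 for NFE2L2 mRNA level: fold of untreated cells after 20 µM for 24 h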;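 for PHLPP1 mRNA level: fold of untreated cells after 20 µM for 24 h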;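 for RAB11A mRNA level: fold of untreated cells after 20 µM for 24 h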;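 for RAC1 mRNA level: fold of untreated cells after 20 µM for 24 h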;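 for RARa mRNA level: fold of untreated cells after 20 µM for 24 h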
Description: RNA was extracted from individual retinas or tissue sections (brain, liver). Total RNA from retinas was extracted using TRIzol Reagent (Invitrogen, # 15596-018), and reverse transcription was performed using the High-Capacity cDNA Reverse Transcription Kit (Applied Biosystems, # 4374966) according to the manufacturer’s instructions. Quantitative real-time PCR was performed in a Light Cycler 480 Instrument (Roche) with Taqman LightCycler 480 probes Master Mix (Roche, #4887301001) using Taqman assays (Life Technologies). For cells in culture, RNA was extracted using RNeasy Plus Mini Kit (Qiagen, #74034), and reverse transcription was performed using Superscript III (Invitrogen, #18080051). Quantitative RT-PCR analysis were performed using Power SYBR Green PCR Master Mix (Applied Biosystems, #4368708) on a StepOne Plus Real-Time PCR System (Applied Biosystems). Mm01184405_m1 probe (Thermofisher) was used for rhodopsin and the sequence of all the other probes used for qPCR is included in Supplementary Table 2.
CMA index[14] was calculated using data set from[23]–[25]. Briefly, each element of the CMA network[13] has attributed a weight. As LAMP-2A is the rate-limiting component of CMA, it was given a weight of 2. Every other element received a weight of 1. Then, every element was attributed direction score that is +1 or −1 based on the known effect of a given element on CMA activity. The score was then calculated as the weighted/ directed average of expression counts of every element of the CMA network.

[3] = system: NIH3T3; assay: Intracellular proteolysis of long half-life proteins; format: cell-based, mouse
Description: Confluent cells were labelled with [^3H]leucine (2μCi/ml) (NEN-PerkinElmer Life Sciences) for 48 h and then extensively washed and maintained in medium with an excess of unlabeled leucine. Proteolysis was calculated from aliquots of the medium taken at different times and precipitated in trichloroacetic acid, as the amount of acid-precipitable radioactivity transformed to acid-soluble radioactivity at each time. Where indicated cell were treated during the chase with […] leupeptin (Sigma, #108975) and […] NH4Cl (to determine lysosomal degradation) or with 100 μm MRT 68921 dihydrochloride (Tocris, #5780) (to determine macroautophagy degradation).

[4] = system: neuroblastoma cell line N2a expressing the KFERQ-PS-Dendra reporter; assay: CMA activity, KFERQ-PS-Dendra reporter in N2a cells; format: cell-based, mouse; set-up: CMA activity, mean (Fig. S2a): unit not given here
Description: Cells were transduced with lentivirus carrying the KFERQ-PS-Dendra reporter as before. Cells were photoactivated by exposure to a 3.5 mA (current constant) light emitting diode (LED: Norlux, 405 nm) for 3 min and then plated in glass-bottom 96 well plates. At the desired times, cells were fixed with 4% PFA and imaged using high-content microscopy (Operetta system, Perkin Elmer). Images were quantified using the manufacturer’s software in a minimum of 1,200 cells in 9 independent fields per well. […] This was particularly important in the case of primary human cells where the efficiency of transduction was ~65%. To avoid confounding effects for drug-induced changes in cell volume or adherence to the plate that could bring a fraction of the cells per field outside of focus, we set a threshold to count only […] that have at least 1/10 of the average number of […] detected in the untreated wells for each cell type (3–4 puncta/cell in the case of NIH3T3 and N2a cells and 5 puncta/cell in primary human fibroblasts).

[5] = Fig. 2d (left), individual replicate values, one sample t test

**Q.** What does the source list for Clc1ccc2c(c1)OCC(c1ccc(-c3ccccc3)cc1)=N2 [CA39]?
**A.** Fig. 3a level, single animals 1-3 ([1]; IV, Time 0.083 h): 52.0116 and 70.6516 and 60.713; Fig. 3b level, single animals 1-3 ([1]; IV, Time 0.083 h): 52.0116 and 70.6516 and 60.713; predicted brain concentration ([1]; intraperitoneal 30 mg/kg bw, converted from Cmax or AUC (CA39: AUC and extended half-life)): 10 to 20 µM; AKT1 mRNA level [2, 5]: 1.27 and 1.30 and 1.45 and 1.16 and 1.03 and 1.84 and 1.28; AKT2 mRNA level [2, 5]: 1.32 and 1.30 and 1.24 and 1.01 and 1.08 and 1.88 and 1.04; CTSA mRNA level [2, 5]: 1.42 and 1.82 and 1.76 and 1.16 and 1.21 and 1.47 and 1.18; EEF1A1 mRNA level [2, 5]: 1.63 and 1.19 and 0.99 and 1.36 and 0.64 and 1.12; HSC70 mRNA level [2, 5]: 1.22 and 1.61 and 1.44 and 1.21 and 1.29 and 2.10 and 1.42; HSP40 mRNA level [2, 5]: 1.09 and 1.23 and 1.16 and 0.96 and 0.74 and 1.03; HSP90AA1 mRNA level [2, 5]: 1.17 and 1.01 and 0.95 and 0.86 and 0.74 and 0.72; HSP90AB1 mRNA level [2, 5]: 1.00 and 0.99 and 0.98 and 1.04 and 0.83 and 0.75; LAMP2A mRNA level [2, 5]: 1.75 and 1.44 and 1.56 and 1.42 and 1.32 and 1.48; NCOR1 mRNA level [2, 5]: 1.09 and 1.39 and 1.22 and 0.82 and 0.71 and 0.95 and 0.89; NFATC1 mRNA level [2, 5]: 1.14 and 1.53 and 1.30 and 0.80 and 1.03 and 1.25 and 1.28; NFE2L2 mRNA level [2, 5]: 0.96 and 1.16 and 1.02 and 0.72 and 0.80 and 1.15 and 1.10; PHLPP1 mRNA level [2, 5]: 1.27 and 1.65 and 1.69 and 3.21 and 1.20 and 1.48 and 1.51; RAB11A mRNA level [2, 5]: 1.05 and 1.19 and 0.95 and 0.84 and 1.00 and 1.21 and 1.07; RAC1 mRNA level [2, 5]: 1.38 and 1.77 and 1.43 and 1.78 and 1.31 and 1.54 and 1.42; RARa mRNA level [2, 5]: 0.55 and 1.08 and 1.05 and 0.89 and 0.84 and 0.93 and 0.88; RICTOR mRNA level [2, 5]: 1.22 and 1.28 and 0.83 and 0.86 and 1.60 and 1.10; CMA activation score ([2]; Fig. 2d (right), individual replicate values): 0.6107 and 0.1532 and -0.08737 and 0.08765; predicted CMA score compared to AR7 ([2]; NIH3T3, 20μM for 24 h): higher; duration of the increase in degradation of long-lived proteins ([3]; NIH3T3, 10 μM): remained upregulated 24 h; Lysosomal proteolysis, Mean (Fig. S3c) ([3]; Time 6): 2.60; Lysosomal proteolysis, Mean (Fig. S3c) ([3]; Time 12): 7.36; CMA activity, mean relative to concentration 0 = 1 (Fig. S2b) ([4]; 12+12w, concentration 0.2): 0.9934; CMA activity, mean relative to concentration 0 = 1 (Fig. S2b) ([4]; 12+12w, concentration 2): 0.9832; CMA activity, mean relative to concentration 0 = 1 (Fig. S2b) ([4]; 12+12w, concentration 5): 3.155; CMA activity, mean relative to concentration 0 = 1 (Fig. S2b) ([4]; 12+12w, concentration 10): 2.605; CMA activity, mean relative to concentration 0 = 1 (Fig. S2b) ([4]; 12+12w, concentration 20): 4.196; CMA activity, mean relative to concentration 0 = 1 (Fig. S2b) ([4]; 12+12w, concentration 30): 3.752; CMA activity, mean (Fig. S2a) ([4]; 12h, concentration 0.02): 3.028; CMA activity, mean (Fig. S2a) ([4]; 12h, concentration 0.2): 4.51; CMA activity, mean relative to concentration 0 = 1 (Fig. S2b) ([4]; 12h, concentration 0.2): 1.03; CMA activity, mean (Fig. S2a) ([4]; 12h, concentration 2): 4.84; CMA activity, mean relative to concentration 0 = 1 (Fig. S2b) ([4]; 12h, concentration 2): 1.106; CMA activity, mean (Fig. S2a) ([4]; 12h, concentration 5): 10.9424; CMA activity, mean relative to concentration 0 = 1 (Fig. S2b) ([4]; 12h, concentration 5): 2.5; CMA activity, mean (Fig. S2a) ([4]; 12h, concentration 10): 9.785; CMA activity, mean relative to concentration 0 = 1 (Fig. S2b) ([4]; 12h, concentration 10): 2.2356; CMA activity, mean (Fig. S2a) ([4]; 12h, concentration 20): 12.4415; CMA activity, mean relative to concentration 0 = 1 (Fig. S2b) ([4]; 12h, concentration 20): 2.842; CMA activity, mean (Fig. S2a) ([4]; 12h, concentration 30): 12.3771; CMA activity, mean relative to concentration 0 = 1 (Fig. S2b) ([4]; 12h, concentration 30): 2.828; CMA activity, mean (Fig. S2a) ([4]; 12h, concentration 40): 18.3499; CMA activity, mean (Fig. S2a) ([4]; 12h, concentration 50): 17.0288; CMA activity, mean (Fig. S2a) ([4]; 12h, concentration 60): 19.2922; CMA activity, mean (Fig. S2a) ([4]; 24h, concentration 0.02): 3.481; CMA activity, mean (Fig. S2a) ([4]; 24h, concentration 0.2): 5.502; CMA activity, mean relative to concentration 0 = 1 (Fig. S2b) ([4]; 24h, concentration 0.2): 1.258; CMA activity, mean (Fig. S2a) ([4]; 24h, concentration 2): 4.784; CMA activity, mean relative to concentration 0 = 1 (Fig. S2b) ([4]; 24h, concentration 2): 1.094; CMA activity, mean (Fig. S2a) ([4]; 24h, concentration 5): 12.5789; CMA activity, mean relative to concentration 0 = 1 (Fig. S2b) ([4]; 24h, concentration 5): 2.876; CMA activity, mean (Fig. S2a) ([4]; 24h, concentration 10): 14.7898; CMA activity, mean relative to concentration 0 = 1 (Fig. S2b) ([4]; 24h, concentration 10): 3.382; CMA activity, mean (Fig. S2a) ([4]; 24h, concentration 20): 22.8096; CMA activity, mean relative to concentration 0 = 1 (Fig. S2b) ([4]; 24h, concentration 20): 5.216; CMA activity, mean (Fig. S2a) ([4]; 24h, concentration 30): 25.6157; CMA activity, mean relative to concentration 0 = 1 (Fig. S2b) ([4]; 24h, concentration 30): 5.858; CMA activity, mean (Fig. S2a) ([4]; 24h, concentration 40): 31.0418; CMA activity, mean (Fig. S2a) ([4]; 24h, concentration 50): 34.0174; CMA activity, mean (Fig. S2a) ([4]; 24h, concentration 60): 32.9288; CMA activation in neuron-related mouse cells ([4]; in words): efficiently activated CMA
